Data set [1] deals with HeLa nuclear extract. Put plainly: HDAC inhibition, HeLa nuclear extract. The format is biochemical. How it is done:
HDACs enzymatic assays were conducted according to our previous work. In detail, the HeLa nuclear extract, HDAC1 (BPS BIOSCIENCE INC, 50051), HDAC2 (BPS BIOSCIENCE Inc; 50052), HDAC3/NCOR1 complex (BPS BIOSCIENCE Inc; 50003), HDAC4 (BPS BIOSCIENCE Inc; 50004), HDAC5 (BPS BIOSCIENCE Inc; 50005), HDAC6 (BPS BIOSCIENCE Inc; 50006), HDAC7 (BPS BIOSCIENCE Inc; 50007), HDAC8 (BPS BIOSCIENCE Inc; 50008), HDAC9 (BPS BIOSCIENCE Inc; 50009), HDAC10 (BPS BIOSCIENCE Inc; 50010), or HDAC11 (BPS BIOSCIENCE Inc; 50011) was diluted to the proper concentrations according to the relative enzymatic activity and the linear range of the plate reader and mixed with different concentrations of drugs. Substrates (Boc‐Lys(acetyl)‐AMC for HeLa nuclear extract, Ac‐Leu‐Gly‐Lys (Tfa)‐AMC for HDAC4, HDAC5, HDAC6, HDAC7, HDAC9, HDAC10, and HDAC11, Boc‐Lys(triflouroacetyl)‐AMC for HDAC8 and Ac‐Leu‐Gly‐Lys(acetyl)‐AMC for HDAC1, HDAC2, HDAC3) were added to the mixture. The blank group was set to no enzyme or drug but contains substrates and the control group was set to no drug but contains substrates and enzymes to each 96‐well plate. After 30 min of incubation at 37°C, the mixture was terminated with 1 mg/mL trypsin and 3 µM TSA. After another 30 min, the fluorescence intensity was measured using a Varioskan plate reader at 360/460 nm. […] The inhibition curves and IC50 values were simulated and calculated using the log(inhibitor) versus response (three parameters) mode in GraphPad Prism software.

Data set [2] deals with T1, HDAC1 (Homo sapiens, UniProt Q13547).
T1 construct: purchased BPS BIOSCIENCE INC 50051
T1 sequence (Q13547 whole entry): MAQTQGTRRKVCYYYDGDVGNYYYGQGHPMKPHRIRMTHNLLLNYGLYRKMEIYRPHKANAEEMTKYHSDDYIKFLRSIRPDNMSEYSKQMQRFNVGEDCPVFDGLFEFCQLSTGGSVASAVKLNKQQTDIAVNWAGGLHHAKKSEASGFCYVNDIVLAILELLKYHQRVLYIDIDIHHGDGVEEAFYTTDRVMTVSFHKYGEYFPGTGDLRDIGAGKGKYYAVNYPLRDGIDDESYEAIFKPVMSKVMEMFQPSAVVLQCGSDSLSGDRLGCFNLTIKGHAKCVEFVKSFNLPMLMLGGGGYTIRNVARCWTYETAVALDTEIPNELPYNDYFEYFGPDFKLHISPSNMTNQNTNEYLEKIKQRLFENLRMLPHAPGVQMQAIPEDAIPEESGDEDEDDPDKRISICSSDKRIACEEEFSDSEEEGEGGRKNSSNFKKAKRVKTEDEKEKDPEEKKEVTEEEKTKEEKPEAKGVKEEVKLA
The data set can be described thus: HDACs enzymatic assay HDAC1. The format is biochemical. How it is done: (§1) HDACs enzymatic assays were conducted according to our previous work. […] Substrates (Boc‐Lys(acetyl)‐AMC for HeLa nuclear extract, Ac‐Leu‐Gly‐Lys (Tfa)‐AMC for HDAC4, HDAC5, HDAC6, HDAC7, HDAC9, HDAC10, and HDAC11, Boc‐Lys(triflouroacetyl)‐AMC for HDAC8 and Ac‐Leu‐Gly‐Lys(acetyl)‐AMC for HDAC1, HDAC2, HDAC3) were added to the mixture. The blank group was set to no enzyme or drug but contains substrates and the control group was set to no drug but contains substrates and enzymes to each 96‐well plate. After 30 min of incubation at 37°C, the mixture was terminated with 1 mg/mL trypsin and 3 µM TSA. After another 30 min, the fluorescence intensity was measured using a Varioskan plate reader at 360/460 nm. […] The inhibition curves and IC50 values were simulated and calculated using the log(inhibitor) versus response (three parameters) mode in GraphPad Prism software.

Data set [3] has as its target T2, HDAC6 (Homo sapiens, UniProt Q9UBN7).
T2 construct: purchased BPS BIOSCIENCE Inc 50006
Put plainly: HDACs enzymatic assay HDAC6. It counts as biochemical. Particulars: Class IIb. How it is done: as §1

Data set [4] concerns the target T3, HDAC10 (Homo sapiens, UniProt Q969S8).
T3 construct: purchased BPS BIOSCIENCE Inc 50010
Put plainly: HDACs enzymatic assay HDAC10. It counts as biochemical. Particulars: Class IIb. How it is done:
as §1

Data set [5] has as its system MDA-MB-231 xenograft. Put plainly: MDA-MB-231 xenograft model. The format is in vivo, BALB/c-nu mice. How it is done:
BALB/c‐nu mice were obtained from Pengyue Co. Ltd. (Jinan, China) and were fed in laminar flow cabinets under specific pathogen‐free (SPF) conditions. With the approval of ethics committee of Shandong University, the animal experiments were conducted. To establish the MDA‐MB‐231 xenograft model, BALB/c‐nu mice (3–4 weeks old and 15–18 g body weight, male) were selected and injected subcutaneously into the armpits with 1.2 × 10^7 MDA‐MB‐231 cells. […] Body weight and tumor size were measured every 3 days during the 22‐day treatment.

The subject of data set [6] is MDA-MB-231 cells. The data set can be described thus: Colony formation assay. Particulars: 2 µM, 48 h. The format is cell-based, human. How it is done:
The colony formation assay is performed by seeding 1000 MDA‐MB‐231 cells per well into 6‐well plates and allowing them to adhere overnight. […] Once colonies are visible (≥50 cells per colony), the medium is removed, and cells are gently washed with PBS, fixed with 4% paraformaldehyde for 15 min, and stained with Giemsa stain solution for 30 min. Excess stain is rinsed with water, and plates are air‐dried. Colonies are then imaged.

Data set [7] deals with immune cells of MC38 syngeneic model. The data set can be described thus: Flow cytometry of tumor-infiltrating and spleen immune cells, MC38 model. It counts as in vivo, C57BL/6J mice. How it is done: After 14 days, the tumors and spleens were split, and cells were isolated to analyze the change in cancer immunity. For TILs, the tumors were incubated with the tumor digestion fluid (collagenase and hyaluronic acid included) and then filtered with a 200‐gauge mesh and centrifuged (100×g, 1 min). The supernatant was centrifuged (400×g, 5 min) and precipitated cells were purified by 40% percoll solution followed by RBC lysis and washing. For splenocytes, the spleen was passed through a 200‐gauge mesh, and splenocytes were collected after RBC lysis and washing.
The prepared cell suspensions were incubated with rat serum at room temperature for 30 min to block the FC‐receptor and incubated with fluorescent antibodies at 4°C for 1 h. For Foxp3 staining, Foxp3/Transcription Factor Staining Buffer Set (eBioscience; #00‐5523‐00) was used. For intracellular cytokines staining, cells were pre‐stimulated with 1 µg/mL ionomycin (Beyotime; #S1672), 50 ng/mL PMA (Sigma; #P1585) and Brefeldin A (BioLegend; #420601) for 4 h. Flow cytometry was conducted with FACS Celesta (BD Biosciences, USA) and analyzed with FlowJo software.
On the technique in general: In flow cytometry, cells or beads pass a laser one at a time.

Structures are written as SMILES.

T3 sequence (Q969S8 whole entry): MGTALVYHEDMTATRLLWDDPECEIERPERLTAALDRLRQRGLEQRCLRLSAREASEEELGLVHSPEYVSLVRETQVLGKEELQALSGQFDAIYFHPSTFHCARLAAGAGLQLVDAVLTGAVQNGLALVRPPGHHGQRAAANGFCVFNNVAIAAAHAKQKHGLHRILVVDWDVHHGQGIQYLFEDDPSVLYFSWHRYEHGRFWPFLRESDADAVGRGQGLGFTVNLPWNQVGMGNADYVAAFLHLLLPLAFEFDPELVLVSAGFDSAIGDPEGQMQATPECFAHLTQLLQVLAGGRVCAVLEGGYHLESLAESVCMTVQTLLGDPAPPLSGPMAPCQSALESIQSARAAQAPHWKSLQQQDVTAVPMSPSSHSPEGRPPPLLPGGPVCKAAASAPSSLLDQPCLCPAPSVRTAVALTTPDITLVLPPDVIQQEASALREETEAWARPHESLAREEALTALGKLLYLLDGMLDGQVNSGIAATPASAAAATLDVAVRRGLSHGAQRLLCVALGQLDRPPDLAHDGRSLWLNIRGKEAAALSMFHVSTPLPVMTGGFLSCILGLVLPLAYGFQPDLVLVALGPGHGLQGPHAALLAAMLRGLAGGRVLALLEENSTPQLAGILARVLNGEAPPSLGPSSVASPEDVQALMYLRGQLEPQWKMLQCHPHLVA
T2 sequence (Q9UBN7 whole entry): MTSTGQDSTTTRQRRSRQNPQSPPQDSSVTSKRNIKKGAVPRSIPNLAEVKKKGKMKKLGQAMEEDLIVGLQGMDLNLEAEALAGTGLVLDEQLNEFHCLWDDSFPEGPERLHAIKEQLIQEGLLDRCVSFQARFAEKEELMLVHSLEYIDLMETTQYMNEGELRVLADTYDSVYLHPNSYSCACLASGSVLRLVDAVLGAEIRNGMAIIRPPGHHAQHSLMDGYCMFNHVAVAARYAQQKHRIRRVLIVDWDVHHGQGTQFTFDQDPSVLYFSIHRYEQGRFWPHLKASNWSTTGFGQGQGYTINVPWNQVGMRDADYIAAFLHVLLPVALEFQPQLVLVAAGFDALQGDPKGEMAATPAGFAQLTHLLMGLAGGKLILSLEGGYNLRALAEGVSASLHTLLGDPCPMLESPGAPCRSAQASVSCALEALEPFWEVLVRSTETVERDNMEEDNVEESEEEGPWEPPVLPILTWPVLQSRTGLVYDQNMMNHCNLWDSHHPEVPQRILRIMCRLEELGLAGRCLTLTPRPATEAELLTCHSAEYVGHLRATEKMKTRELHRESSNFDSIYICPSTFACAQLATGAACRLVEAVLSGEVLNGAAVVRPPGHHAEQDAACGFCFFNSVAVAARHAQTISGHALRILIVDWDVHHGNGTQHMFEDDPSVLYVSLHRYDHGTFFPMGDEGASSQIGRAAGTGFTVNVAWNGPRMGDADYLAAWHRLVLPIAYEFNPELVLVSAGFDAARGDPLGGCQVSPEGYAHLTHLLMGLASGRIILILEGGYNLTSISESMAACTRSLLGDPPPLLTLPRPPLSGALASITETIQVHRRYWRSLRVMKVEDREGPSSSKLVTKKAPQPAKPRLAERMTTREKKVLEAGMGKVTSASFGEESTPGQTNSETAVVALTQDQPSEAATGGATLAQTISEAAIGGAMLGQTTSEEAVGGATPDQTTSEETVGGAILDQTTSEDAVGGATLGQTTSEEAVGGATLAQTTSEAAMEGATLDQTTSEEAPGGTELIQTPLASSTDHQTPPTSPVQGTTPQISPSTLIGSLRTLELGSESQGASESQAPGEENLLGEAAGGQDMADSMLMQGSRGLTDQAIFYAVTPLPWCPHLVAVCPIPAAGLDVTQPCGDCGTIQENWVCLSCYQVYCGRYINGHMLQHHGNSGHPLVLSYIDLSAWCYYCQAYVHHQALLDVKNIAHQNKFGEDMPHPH

As for `O=C(CCCCCCNC(=O)c1cc(OCCc2ccccc2)c2ccccc2n1)NO` [SDFZ-8], in data set [1] (mean ± SD of three determinations, read-out: HDAC inhibitory activity IC50 (HeLa extract)), the IC50 was 10 nM. For the same compound, the “HDAC inhibitory activity surpassing LBH-589” value in data set [1] (versus LBH-589) came out at 2.5 fold. Besides, the “HDAC inhibitory activity surpassing SAHA” value in data set [1] (versus SAHA) is recorded as 28.6 fold. Moreover, the IC50 in data set [2] (Class I, mean ± SD of three) was found to be 0.4 ± 0.1 nM. In addition, in data set [2] (versus SAHA), the “HDAC1 potency superior to SAHA” value is 92 fold. Besides, the IC50 in data set [3] was 3.1 ± 0.5 nM. In addition, the IC50 in data set [4] is more than 10000 nM. The “general health of the mice” value in data set [5] (MDA-MB-231 xenograft BALB/c-nu mice, 60 mg/kg/day) was “without adversely affecting the general health of the mice”. The compound further returned a TGI in data set [5] (MDA-MB-231 xenograft, BALB/c-nu mice, 60 mg/kg/day oral gavage, 22 days) of 76%. For the same compound, the “colony formation of MDA-MB-231” value in data set [6] is on record as “significantly inhibited”. In addition, in data set [7], the “PD-1 expression in tumor-infiltrating CD4+ T cells and CD8+ T cells” value is reported as “did not affect”; the “PD-1 expression in tumor-infiltrating NK cells” value is “downregulated”; the “PD-L1 expression in tumor-infiltrating immune cells (DCs and macrophages)” value is “upregulation”; the “surface expression of MHC class II in DCs and macrophages” value is “significantly increased”. Further, the “tumor-infiltrating lymphocytes (TILs)” value in data set [7] (CD4+ and CD8+ T cells) is recorded as “more significant increase”. Further, in data set [7] (CD206 marker), the “M2 polarization of TAMs” value is “suppressed”. Further, the “M1 polarization of TAMs” value in data set [7] (iNOS marker) is reported as “robustly promoted”. Also, in data set [7] (spleen), the “PD-L1 and PD-1 expression in various immune cells in the spleen” value was “significantly decreased”; the “proportion of CD4+ T cells, CD8+ T cells and NK cells in the spleen” value is given as “elevated”. For the same compound, the “expression of IFN-γ and TNF-α in CD4+ T cells and CD8+ T cells” value in data set [7] (tumor) is “upregulation”.

What is called IC50 is the concentration that inhibits the measured activity by half. As a reminder, the TGI is how far tumour growth fell short of that in controls. A high value points to much slowing of growth.

For the origin of these results see publication PMC12627232 (MedComm, 2025).
